The values below come from patent publication US20060258582A1, “Method of treating myelodysplastic syndromes” (Scios, Inc., priority 2004, published 2006).

The subject of one assay is MDS CD34+ progenitors. Briefly: methylcellulose clonogenic assay, MDS CD34+ progenitors. The conditions noted are these: for erythroid (BFU-E) and myeloid (CFU-GM) colony formation in MDS CD34+ bone marrow cells: in vitro, methylcellulose. The format is cell-based, human. The procedure: MDS BM-derived CD34+ cells from 19 patients with MDS (Table 5) were cultured in methylcellulose in the presence and absence of increasing concentrations of compound 57. Results are expressed as means+/−SEM of 19 independent experiments.
(A) Total colony numbers of (A) Blast Forming unit-erythroid (BFU-E) and (B) Colony forming unit-Granulocytic Macrophage (CFU-GM) before (control) and after compound 57 treatment (100 nM) of 19 patients with MDS (Table 5).
(§1) All participants in the study signed informed consent, approved by the institutional review board of UT Southwestern and Dallas VA Medical Center. Hematopoietic progenitor colony formation was determined by clonogenic assays in methylcellulose, as detailed in previous studies. A total of 1×10^4 isolated CD34+ progenitor cells in 0.4 ml IMDM+2% FBS were resuspended in 4 ml MethoCult® (Stem Cell Technologies) and vortexed vigorously. The CD34+ cell:methylcellulose mixture was dispensed into 35 mm culture dishes (1×10^3 cells/35 mm plate) using sterile 3 cc syringe with attached sterile 16-gauge blunt-end needle. Cell cultures were incubated at 37° C., 5% CO2 in air and >95% humidity for 14-16 days. Granulocyte/macrophage colony-forming (CFU-GM) units and erythroid burst forming units (BFU-E) from different samples were scored on day 14 of culture.

For a further assay, the system named is normal CD34+ progenitors. Briefly: methylcellulose clonogenic assay, cytokine-suppressed normal CD34+ progenitors. The assay is classed as cell-based, human. The procedure:
Primary bone marrow derived CD34+ cells were cultured in methylcellulose in the presence and absence of 20 ng/ml TNFα and with the indicated concentrations of compound 57 (nM). BFU-E and CFU-GM colonies were scored on Day 14. Results are expressed as means+/−S.E.M. of three independent experiments.
Primary bone marrow derived CD34+ cells were cultured in methylcellulose in the presence and absence of […] IFNγ and with the indicated concentrations of the p38α inhibitors (compound 57; nM) or compound 162. BFU-E and CFU-GM colonies were scored on Day 14. Results are expressed as means+/−S.E.M. of three independent experiments.
as §1, with “Cell cultures were incubated at 37° C., 5% CO2 in air and >95% humidity for 14-16 days.” left out

For assay [1], the system named is TNFα secretion from BMMNC. Description: basal and LPS-induced TNFα secretion from normal BMMNC, ELISA. The assay is classed as cell-based. As to conditions: Homo sapiens, basal or LPS-induced normal BMMNC cultures, 24 h, read-out: IC50 for inhibition of TNFα secretion. How it is done: BMMNC (1×10^6) from a normal healthy donor were cultured in the absence and presence of increasing concentrations of compound 57 for 24 hours without or with 10 ng/ml LPS. TNFα concentration in cell supernatants were determined by ELISA. Figure represents Mean+/−SD of three independent experiments.
(§2) TNFα, IL-6, VEGF, and IFNγ concentrations of the cell culture supernatants were assayed using ELISA kits from BioSource International (Camarillo, Calif.). MCP-1, MMP-2 and MMP-9 concentrations were assayed using ELISA kits from R&D Systems.
A general note: ELISA stands for enzyme-linked immunosorbent assay.

The subject of another assay is IFNγ production. Description: IFNγ production in IL-12 and IL-18-induced BMMNC, ELISA. The assay is classed as cell-based. As to conditions: Homo sapiens, 24 hours, read-out: IC50 for block of IFNγ production. How it is done: BMMNC (1×10^6) from a normal healthy donor were stimulated with IL-12, IL-18 or both in the presence or absence of increasing concentrations of compound 57 for 24 h. IFN-γ concentration in cell supernatants was determined by ELISA. Figure represents Mean+/−SD of three independent experiments.
as §2

The subject of a further assay is BMSC. Description: cDNA microarray analysis of chemokines in TNFα- or IL-1β-stimulated BMSC. The format is cell-based, human. An excerpt: Details of microarray and data analysis have been described previously. The data was normalized using the maNorm function in array package of Bioconductor version 1.5.8. Differential expression values were expressed as the ratio of the median of background-subtracted fluorescence intensity of the experimental RNA to the median of background-subtracted fluorescence intensity of the control RNA. The total BMSC RNA was extracted from cells using Qiagen's RNeasy kit (Valencia, Calif.). Arrays were probed in quadruplicate for a total of 16 hybridizations: control versus TNFα (24 hours), TNFα versus compound 57+TNFα (24 hours), control versus IL-1β (24 hours), IL-1β versus compound 57+IL-1β (24 hours).

A further assay has as its target p38β (Homo sapiens, UniProt Q15759). Description: selectivity for p38α over p38β. The format is biochemical. The procedure:
(§3) The p38α MAPK inhibitor compound 57 was synthesized by Medicinal Chemistry (Scios, Inc., Fremont, Calif.). compound 57 has an IC50 of 9 nM for inhibition of p38α based on direct enzymatic assays, about 10-fold selectivity for p38α over p38β, and at least 2000-fold selectivity for p38α over a panel of 20 other kinases, including other MAPKs.

Another assay concerns IFNγ. Description: induction of IFNγ by anti-CD3 antibody. The format is cell-based. As to conditions: data not shown.
Another assay deals with p38α (Homo sapiens, UniProt Q16539). Description: direct enzymatic assay for inhibition of p38α. As to conditions: direct enzymatic assays. The format is biochemical. The procedure: as §3
For assay [2], the system named is LPS-induced TNFα secretion in whole human blood. Description: cell based assay, LPS-induced TNFα secretion in whole human blood. As to conditions: read-out: IC50 for inhibition of LPS-induced TNFα secretion. The procedure:
Other in vitro assays can assess the production of TNF-α as a correlation to p38 MAP kinase activity. One such example is a Human Whole Blood Assay. In this assay, venous blood is collected from, e.g., healthy male volunteers into a heparinized syringe and is used within 2 hours of collection. Test compounds are dissolved in 100% DMSO and 1 μl aliquots of drug concentrations ranging from 0 to 1 mM are dispensed into quadruplicate wells of a 24-well microtiter plate (Nunclon Delta SI, Applied Scientific Co., San Francisco, Calif.). Whole blood is added at a volume of 1 ml/well and the mixture is incubated for 15 minutes with constant shaking (Titer Plate Shaker, Lab-Line Instruments, Inc., Melrose Park, Ill.) at a humidified atmosphere of 5% CO2 at 37° C. Whole blood is cultured either undiluted or at a final dilution of 1:10 with RPMI 1640 (Gibco 31800+NaHCO3, Life Technologies, Rockville, Md. and Scios, Inc., Sunnyvale, Calif.). At the end of the incubation period, 10 μl of LPS (E. coli 0111:B4, Sigma Chemical Co., St. Louis, Mo.) is added to each well to a final concentration of 1 or 0.1 μg/ml for undiluted or 1:10 diluted whole blood, respectively. The incubation is continued for an additional 2 hours. The reaction is stopped by placing the microtiter plates in an ice bath, and plasma or cell-free supernates are collected by centrifugation at 3000 rpm for 10 minutes at 4° C. […]

The mark [3] stands for this setting: microarray ratio IL-1β versus compound 57+IL-1β, 24 hours.
The mark [4] stands for this setting: microarray ratio TNFα versus compound 57+TNFα.

Sequence of p38α (Q16539 whole entry): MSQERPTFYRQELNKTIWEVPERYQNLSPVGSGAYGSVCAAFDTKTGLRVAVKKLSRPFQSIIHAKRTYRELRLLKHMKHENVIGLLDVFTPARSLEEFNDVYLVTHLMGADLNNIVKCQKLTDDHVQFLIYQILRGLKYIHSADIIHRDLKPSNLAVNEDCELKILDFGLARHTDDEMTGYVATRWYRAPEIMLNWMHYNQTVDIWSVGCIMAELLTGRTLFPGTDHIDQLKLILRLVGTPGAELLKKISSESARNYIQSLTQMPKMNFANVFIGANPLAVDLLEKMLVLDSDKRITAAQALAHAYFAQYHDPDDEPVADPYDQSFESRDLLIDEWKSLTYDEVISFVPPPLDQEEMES
Sequence of p38β (Q15759 whole entry): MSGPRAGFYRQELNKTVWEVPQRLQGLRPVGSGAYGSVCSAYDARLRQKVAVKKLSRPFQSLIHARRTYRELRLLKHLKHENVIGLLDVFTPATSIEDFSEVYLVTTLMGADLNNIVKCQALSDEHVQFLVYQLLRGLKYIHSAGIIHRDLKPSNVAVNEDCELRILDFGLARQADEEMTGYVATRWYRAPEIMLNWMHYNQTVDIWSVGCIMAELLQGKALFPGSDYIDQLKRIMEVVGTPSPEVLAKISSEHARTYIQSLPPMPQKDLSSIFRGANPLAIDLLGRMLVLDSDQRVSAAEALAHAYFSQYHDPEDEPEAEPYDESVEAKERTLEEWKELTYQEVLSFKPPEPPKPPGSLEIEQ

As for `COc1cccc(-c2cc(=O)c3ccccc3o2)c1N` [PD 98059], the “erythroid (BFU-E) and myeloid (CFU-GM) colony formation in MDS CD34+ bone marrow cells” value in the assay with MDS CD34+ progenitors was “not observed”.

Consider `CN(C)C(=O)C(=O)c1c[nH]c2cc(Cl)c(C(=O)N3CCC(Cc4ccc(F)cc4)CC3)cc12` [compound 162], for which, in the assay on normal CD34+ progenitors (normal CD34+ progenitors, IFNγ, day 14), the “IFNγ-induced suppression of erythroid and myeloid colony formation” value is “reverses”.

As usually defined, the IC50 is the concentration at which inhibition is half-maximal. For the compound `COc1cc2c(cc1C(=O)N1C[C@H](C)N(Cc3ccc(F)cc3)C[C@H]1C)c(C(=O)C(=O)N(C)C)cn2C` [compound 57], the “increase in both BFU-E and CFU-GM colony numbers compared to those without compound” value in the assay with normal CD34+ progenitors (TNFα-treated CD34+ progenitors, 50 nM compound) is “about 100%”. For the same compound, the half-inhibitory concentration (IC50) in [1] is 50 nM. Besides, in the assay with IFNγ production, the concentration for half-maximal inhibition (IC50) was below 50 nM. In the assay with BMSC (setting [3]), the “CCL2 (MCP-1) differential expression, C57 + IL-1β” value is on record as −1.4; the “CCL7 (MCP3) differential expression, C57 + IL-1β” value was −1.5; the “CXCL1 (GROα) differential expression, C57 + IL-1β” value is on record as −1.6; the “CXCL3 (GROγ) differential expression, C57 + IL-1β” value worked out at 1.3. In the assay with BMSC (setting [3]), the “CXCL6 (GCP2) differential expression, C57 + IL-1β” value is −1.6; the “CXCL10 (IP10) differential expression, C57 + IL-1β” value is given as 1.0; the “CXCL11 (ITAC) differential expression, C57 + IL-1β” value is reported as 0.0; the “CXCL16 (SR-PSOX) differential expression, C57 + IL-1β” value was −4.2. Moreover, in the assay with BMSC (setting [4]), the “CCL2 (MCP-1) differential expression, C57 + TNFα (24 h)” value was −1.7; the “CCL7 (MCP3) differential expression, C57 + TNFα (24 h)” value was −2.2; the “CXCL1 (GROα) differential expression, C57 + TNFα (24 h)” value was −2.9; the “CXCL3 (GROγ) differential expression, C57 + TNFα (24 h)” value was −1.6. For the same compound, in the assay on BMSC (setting [4]), the “CXCL6 (GCP2) differential expression, C57 + TNFα (24 h)” value is listed as −5.3; the “CXCL10 (IP10) differential expression, C57 + TNFα (24 h)” value is on record as −2.9; the “CXCL11 (ITAC) differential expression, C57 + TNFα (24 h)” value is reported as −1.4; the “CXCL16 (SR-PSOX) differential expression, C57 + TNFα (24 h)” value is recorded as 1.4. For the same compound, the “selectivity for p38α over p38β” value at p38β was “about 10 fold”. Moreover, the “induction of IFNγ by anti-CD3 antibody” value in the assay on IFNγ is given as “not inhibited”. At p38α, this compound gave an IC50 of 9 nM. Besides, the “increase in myeloid and erythroid colony numbers in MDS progenitors” value in the assay on MDS CD34+ progenitors (20 nM-100 nM compound) is listed as 2-3 fold. Further, in [2], the IC50 is 1300 nM.

`CCc1nc(-c2ccc(OC)cc2)[nH]c1-c1ccncc1` [SB 202474]: the “erythroid (BFU-E) and myeloid (CFU-GM) colony formation in MDS CD34+ bone marrow cells” value in the assay with MDS CD34+ progenitors was “not observed”.
